pKi: −log10 of the molar value.
What was measured:
BCL2 WT = BCL2 WT (Homo sapiens (Human), UniProt P10415); experiment: TR-FRET competitive binding assay, BCL2 WT; settings: Ki determined from IC50, read-out: TR_FRET EKI_Bcl2 WT
Experimental: (§1) The relative binding potency of each compound was determined in a competitive binding assay using time resolved-fluorescence resonance energy transfer (TR-FRET). The method utilised a fluorescein labelled peptide derived from PUMA (5Flu-Ahx-[…]-NH2 wherein Ahx means 6-hexanoic acid monomer and the amino acid sequence is referred to as SEQ ID:01) which binds to a terbium labelled BCL2 or BCLXL protein. The degree of binding or corresponding compound inhibition can be quantified by the TR-FRET signal between the terbium donor and fluorescein acceptor.
(§2) The human BCL2_wild-type (also named BCL2_wt), BCL2_G101V mutant and BCLXL_wild-type were E. coli expressed as a N-terminal Halo-fusion proteins and singly labelled with Terbium on the Halo protein to afford the following amino acid sequences:
(§3) wherein the BCL2(1-207) sequence corresponds to UniProtKB® primary accession number P10415 and the BCLXL(2-196) sequence corresponds to UniProtKB® primary accession number Q07817-1.
(§4) The assay was performed in a 40 μL volume in white 384-standard well plates (Corning #3574). An 11-point serial dilution of each compound was prepared in DMSO and transferred directly to plate followed by addition of fluorescein labelled peptide and lastly protein. Final assay conditions were 0.5 nM BCL2_wt, BCL2_G101V, BCL2_D103Y, BCL2_F104I, BCL2_D111A or BCLXL_wt, 2 or 20 nM fluorescein labelled peptide, 50 mM Hepes pH 7.5, 150 mM NaCl, 0.5 mM TCEP (Tris(2-carboxyethyl)phosphine), 0.05% Tween 20, 5% DMSO. The mixture was incubated for 2 hours at 23° C.
(§5) TR-FRET measurements were performed on a Biotek Synergy Neo plate reader. TR-FRET was measured by excitation of the Terbium-donor at 340 nm and subsequent (delay time 100 μs) measurement of terbium and fluorescein emission at 495 nm and 520 nm, respectively, over a collection time of 300 μs. The TR-FRET signal was calculated as the emission-ratio at 520 nm over 495 nm.
(§6) The TR-FRET ratio readout for test compounds was normalized against 0% inhibition controls wells and 100% inhibition control wells. Test compound potency (IC50) was estimated by nonlinear regression using the sigmoidal dose-response (variable slope) using Xlfit 4 (IDBS, Guildford, Surrey, UK, model 205). Were the IC50 could not be determined the % inhibition at the highest tested concentration is given.
(§7) y=(A+((B−A)/(1+((C/x)^D))))
(§8) where y is the normalized TR-TRET ratio measurement for a given concentration of test compound, x is the concentration of test compound, A is the estimated efficacy (% inhibition) at infinite compound dilution, and B is the maximal efficacy (% inhibition). C is the IC50 value and D is the Hill slope coefficient.
(§9) The K1 values were determined from the IC50 values according to Cer et al, Nucleic Acids Res, 2009, July 1; 37 (WebServer issue): W441-W445.

BCL2 G101V [1] = target: BCL2 G101V (Homo sapiens, UniProt P10415, G101V); experiment: TR-FRET competitive binding assay, BCL2 G101V; settings: BCL2 G101V; Ki determined from IC50; read-out: TR_FRET EKI_Bcl2 G101V
Experimental: as §1, §2, §3, §4, §5, §6, §7, §8, §9

BCL2 G101V [2] = experiment: TR-FRET competitive binding assay, BCL2 G101V; parameters: species or system human; settings: ratio Ki BCL2 G101V / Ki BCL2 WT
Experimental: as §1, §2, §3, §4, §5, §6, §7, §8, §9

BCL2 D103Y = BCL2 D103Y (Homo sapiens, UniProt P10415, D103Y); experiment: TR-FRET competitive binding assay, BCL2 D103Y; settings: Ki determined from IC50, read-out: TR_FRET EKI_Bcl2 D103Y
Experimental: as §1, §2, §3, §4, §5, §6, §7, §8, §9

BCLXL WT = BCLXL WT (Homo sapiens (Human), UniProt Q07817); experiment: TR-FRET competitive binding assay, BCLXL WT; settings: for pKi: BCLXL WT, Ki determined from IC50, read-out: TR_FRET EKI BclxL; for TR_FRET EKI BCLxL/WT selectivty ratio: ratio Ki BCLxL / Ki BCL2 WT
Experimental: as §1, §2, §3, §4, §5, §6, §7, §8, §9

KMS-12-PE Bcl-2 WT = experiment: In vitro cytotoxicity CellTiter-Glo 48 h, KMS-12-PE Bcl-2 WT; format: cell-based; settings: Homo sapiens, KMS-12-PE, C50 = concentration needed to reach 50% of the cellular viability
Experimental: (§10) KMS-12-PE (ACC 606) were purchased from the Leibniz-Institute DSMZ (Braunschweig, Germany) and were grown at 37° C. in a humidified atmosphere with […] in media recommended by the suppliers. Lentiviral particles containing Bcl-2 wild type (also named “Bcl2 WT”) and Bcl-2 mutated on G101V (also named “Bcl2 G101V”) were cloned into pcLV-CMV-DEST-IRES-TagRFP. Lentiviral particles (1×106) were mixed with Polybrene at 8 µg/ml and transduced by spinoculation for 1 h at 32° C. and incubated overnight. After 8 days, TagRFP positive-cells were sorted by FACS. BCL2 expression was monitored by immunoblotting using anti-Flag and anti-BCL2 antibodies.
(§11) Cellular viability was monitored with the cell viability assay (CellTiter-Glo®) on KMS-12-PE WT and G101V cell lines. The CellTiter-Glo® (CTG) Luminescent Cell Viability Assay (from Promega) is a homogeneous method to determine the number of viable cells in culture based on quantitation of the ATP present, which signals the presence of metabolically active cells.
(§12) Dose response of compounds are performed with 10 mM stock solutions (DMSO), 11-points curve, in a 384-well compound plate. The assay plate is prepared by stamping 40 nL from compound dilution plate of all different concentrations (e.g. 10 mM to have final […] assay test) into a cell culture microplate, using Echo acoustic liquid handling (Labcyte, Beckman). 40 μl of cell solution is added and cells are incubated with compounds for 48 h at 37° C., 5% CO2. CTG was added to the cells (according to the manufacturer instructions) and luminescence intensity was recorded using the Pherastar plate reader (BMG).
(§13) This assay provides in vitro cellular potency of the tested Bcl-2 inhibitors, measuring the C50, defined as the concentration needed to reach 50% of the cellular viability.

KMS-12-PE Bcl-2 G101V = experiment: In vitro cytotoxicity CellTiter-Glo 48 h, KMS-12-PE Bcl-2 G101V; format: cell-based; settings: for Ratio (G101V/WT): C50 KMS-12-PE Bcl-2 G101V over C50 KMS-12-PE Bcl-2 WT; for IC50: Homo sapiens, KMS-12-PE, 48 h, CellTiter-Glo, C50 = concentration needed to reach 50% of the cellular viability
Experimental: as §10, §11, §12, §13

Sequence of BCLXL WT (Q07817 other isoform, or with tags, fused parts or gaps): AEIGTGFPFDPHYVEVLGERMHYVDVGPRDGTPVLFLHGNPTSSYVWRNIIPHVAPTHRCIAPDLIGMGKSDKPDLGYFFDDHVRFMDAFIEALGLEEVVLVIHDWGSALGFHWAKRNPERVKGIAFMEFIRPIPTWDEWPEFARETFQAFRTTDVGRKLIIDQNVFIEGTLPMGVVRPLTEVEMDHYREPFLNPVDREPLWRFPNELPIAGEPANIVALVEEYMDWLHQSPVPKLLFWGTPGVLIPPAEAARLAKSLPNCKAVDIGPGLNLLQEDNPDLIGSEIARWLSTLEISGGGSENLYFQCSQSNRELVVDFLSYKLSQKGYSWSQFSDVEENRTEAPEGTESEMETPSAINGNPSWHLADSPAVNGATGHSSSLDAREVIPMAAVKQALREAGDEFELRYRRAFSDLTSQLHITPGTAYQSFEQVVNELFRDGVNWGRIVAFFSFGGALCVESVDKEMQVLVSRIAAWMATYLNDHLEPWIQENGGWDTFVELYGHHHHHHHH

SMILES	pKi (BCL2 WT)	pKi (BCL2 G101V [1])	TR_FRET EKI G101V/WT selectivty ratio (BCL2 G101V [2])	pKi (BCL2 D103Y)	pKi (BCLXL WT)	TR_FRET EKI BCLxL/WT selectivty ratio (BCLXL WT)	IC50 (KMS-12-PE Bcl-2 WT) [µM]	Ratio (G101V/WT) (KMS-12-PE Bcl-2 G101V)	IC50 (KMS-12-PE Bcl-2 G101V) [µM]
Cc1c(N(C(=O)c2cc(-c3cc4c(cc3C(=O)N3Cc5ccccc5C[C@H]3C)CN(C(=O)C(F)(F)c3ccc(N5CCN(C)CC5)cc3)CC4)n(C)c2C)c2ccc(O)cc2)cc(C#N)n1C [Example 26, N-(5-cyano-1,2-dimethylpyrrol-3-yl)-5-(2-{2,2-difluoro-2-[4-(4-methylpiperazin-1-yl)phenyl]acetyl}-7-{[(3R)-3-methyl-3,4-dihydro-1H-isoquinolin-2-yl]carbonyl}-3,4-dihydro-1H-isoquinolin-6-yl)-N-(4-hydroxyphenyl)-1,2-dimethylpyrrole-3-carboxamide]	8.96	8.28	4.8	9.08	7.63	21.1			
COCc1ccc(CC(=O)N2CCc3cc(-c4cc(C(=O)N(c5ccc(O)cc5)c5cc(C#N)n(C)c5C)c(C)n4C)c(C(=O)N4Cc5ccccc5C[C@H]4C)cc3C2)cc1 [Example 87, N-(5-cyano-1,2-dimethyl-1H-pyrrol-3-yl)-N-(4-hydroxyphenyl)-5-(2-{2-[4-(methoxymethyl)phenyl]acetyl}-7-[(3R)-3-methyl-1,2,3,4-tetrahydroisoquinoline-2-carbonyl]-1,2,3,4-tetrahydroisoquinolin-6-yl)-1,2-dimethyl-1H-pyrrole-3-carboxamide]	9.92	9.30		9.34	8.89	10.8	0.0073	5.43	0.0394
Cc1c(N(C(=O)c2cc(-c3cc4c(cc3C(=O)N3Cc5ccccc5C[C@H]3CN3CCC[C@@H]3C)CN(C(=O)Cc3ccc(OCCN5CCOCC5)cc3F)CC4)n(C)c2C)c2ccc(O)cc2)cc(C#N)n1C [Example 173, N-(5-cyano-1,2-dimethylpyrrol-3-yl)-5-[2-(2-{2-fluoro-4-[2-(morpholin-4-yl)ethoxy]phenyl}acetyl)-7-{[(3S)-3-{[(2S)-2-methylpyrrolidin-1-yl]methyl}-3,4-dihydro-1H-isoquinolin-2-yl]carbonyl}-3,4-dihydro-1H-isoquinolin-6-yl]-N-(4-hydroxyphenyl)-1,2-dimethylpyrrole-3-carboxamide]	10.52	9.52		9.92	8.40	133.3	0.0084	5.5095	0.0465
Cc1c(N(C(=O)c2cc(-c3cc4c(cc3C(=O)N3Cc5ccccc5C[C@H]3C)CN(C(=O)Cc3cccc(N5CCCN(C)CC5)c3)CC4)n(C)c2C)c2ccc(O)cc2)cc(C#N)n1C [Example 231]							0.0391		
Cc1c(N(C(=O)c2cc(-c3cc4c(cc3C(=O)N3Cc5ccccc5C[C@H]3C)CN(C(=O)Cc3ccc(OCCC5CCN(C)CC5)nc3)CC4)n(C)c2C)c2ccc(O)cc2)cc(C#N)n1C [Example 232]							0.0328	2.0	0.0657

Continued, in another order:

pKi (BCL2 WT)	pKi (BCL2 G101V [1])	TR_FRET EKI G101V/WT selectivty ratio (BCL2 G101V [2])	pKi (BCL2 D103Y)	pKi (BCLXL WT)	TR_FRET EKI BCLxL/WT selectivty ratio (BCLXL WT)	SMILES	IC50 (KMS-12-PE Bcl-2 WT) [µM]	Ratio (G101V/WT) (KMS-12-PE Bcl-2 G101V)	IC50 (KMS-12-PE Bcl-2 G101V) [µM]
11.00	9.70		10.40	8.28	410.0	Cc1c(C(=O)N(c2ccc(O)cc2)c2cnn(C(F)F)c2)cc(-c2cc3c(cc2C(=O)N2Cc4ccccc4C[C@H]2C)CN(C(=O)Cc2ccc(OCCN4CCOCC4)cc2F)CC3)n1C [Example 186, N-[1-(difluoromethyl)pyrazol-4-yl]-5-[2-[2-[2-fluoro-4-(2-morpholinoethoxy)phenyl]acetyl]-7-[(3R)-3-methyl-3,4-dihydro-1H-isoquinoline-2-carbonyl]-3,4-dihydro-1H-isoquinolin-6-yl]-N-(4-hydroxyphenyl)-1,2-dimethyl-pyrrole-3-carboxamide]	0.0047		
11.00	8.85		10.15	9.22	58.6	COc1ncc(N(C(=O)c2cc(-c3cc4c(cc3C(=O)N3Cc5ccccc5C[C@H]3C)CN(C(=O)Cc3cccc(N5CC6(CN(C)C6)C5)c3)CC4)n(C)c2C)c2ccccc2)cc1F [Example 198, N-(5-fluoro-6-methoxy-3-pyridyl)-1,2-dimethyl-5-[2-[2-[3-(6-methyl-2,6-diazaspiro[3.3]heptan-2-yl)phenyl]acetyl]-7-[(3R)-3-methyl-3,4-dihydro-1H-isoquinoline-2-carbonyl]-3,4-dihydro-1H-isoquinolin-6-yl]-N-phenyl-pyrrole-3-carboxamide]	0.0349		
10.10	8.34		9.72	8.06	116.3	Cc1c(C(=O)N(c2ccccc2)c2cnn(C(F)F)c2)cc(-c2cc3c(cc2C(=O)N2Cc4ccccc4C[C@H]2C)CN(C(=O)Cc2ccc(OCCN(C)C)cc2)CC3)n1C [Example 199, N-[1-(difluoromethyl)pyrazol-4-yl]-5-[2-[2-[4-[2-(dimethylamino)ethoxy]phenyl]acetyl]-7-[(3R)-3-methyl-3,4-dihydro-1H-isoquinoline-2-carbonyl]-3,4-dihydro-1H-isoquinolin-6-yl]-1,2-dimethyl-N-phenyl-pyrrole-3-carboxamide]	0.0244		
10.30	8.92		10.05	7.79	322.5	COc1ncc(N(C(=O)c2cc(-c3cc4c(cc3C(=O)N3Cc5ccccc5C[C@H]3C)CN(C(=O)Cc3ccc(OCCN5CCOCC5)cc3)CC4)n(C)c2C)c2ccccc2)cc1C#N [Example 201, N-(5-cyano-6-methoxy-3-pyridyl)-1,2-dimethyl-5-[7-[(3R)-3-methyl-3,4-dihydro-1H-isoquinoline-2-carbonyl]-2-[2-[4-(2-morpholinoethoxy)phenyl]acetyl]-3,4-dihydro-1H-isoquinolin-6-yl]-N-phenyl-pyrrole-3-carboxamide]	0.0394		

Reference: patent publication US20250179047A1, “5-[7-(3,4-DIHYDRO-1H-ISOQUINOLINE-2-CARBONYL)-1,2,3,4 TETRAHYDROISOQUINOLIN-6-YL]-1H-PYRROLE-3-CARBOXAMIDE DERIVATIVES, PHARMACEUTICAL COMPOSITIONS CONTAINING THEM AND THEIR USES AS PRO-APOPTOTIC AGENTS” (LES LABORATOIRES SERVIER, priority 2022, published 2025)
